Among the data in patent US20230219962A1, “PYRAZOLO[4,3-d]PYRIMIDINE DERIVATIVES AND METHODS OF USE THEREOF FOR THE TREATMENT OF CELLULAR PROLIFERATIVE DISORDERS” (Merck Sharp & Dohme LLC, priority 2020, published 2023) are EC50 values, retold here.

One assay deals with T1, hTLR7 (Homo sapiens, UniProt Q9NYK1).
T1 construct: host or cells: HEK-Blue hTLR7 cells (HEK293-derived, own knowledge)
T1 sequence (Q9NYK1 27-1049): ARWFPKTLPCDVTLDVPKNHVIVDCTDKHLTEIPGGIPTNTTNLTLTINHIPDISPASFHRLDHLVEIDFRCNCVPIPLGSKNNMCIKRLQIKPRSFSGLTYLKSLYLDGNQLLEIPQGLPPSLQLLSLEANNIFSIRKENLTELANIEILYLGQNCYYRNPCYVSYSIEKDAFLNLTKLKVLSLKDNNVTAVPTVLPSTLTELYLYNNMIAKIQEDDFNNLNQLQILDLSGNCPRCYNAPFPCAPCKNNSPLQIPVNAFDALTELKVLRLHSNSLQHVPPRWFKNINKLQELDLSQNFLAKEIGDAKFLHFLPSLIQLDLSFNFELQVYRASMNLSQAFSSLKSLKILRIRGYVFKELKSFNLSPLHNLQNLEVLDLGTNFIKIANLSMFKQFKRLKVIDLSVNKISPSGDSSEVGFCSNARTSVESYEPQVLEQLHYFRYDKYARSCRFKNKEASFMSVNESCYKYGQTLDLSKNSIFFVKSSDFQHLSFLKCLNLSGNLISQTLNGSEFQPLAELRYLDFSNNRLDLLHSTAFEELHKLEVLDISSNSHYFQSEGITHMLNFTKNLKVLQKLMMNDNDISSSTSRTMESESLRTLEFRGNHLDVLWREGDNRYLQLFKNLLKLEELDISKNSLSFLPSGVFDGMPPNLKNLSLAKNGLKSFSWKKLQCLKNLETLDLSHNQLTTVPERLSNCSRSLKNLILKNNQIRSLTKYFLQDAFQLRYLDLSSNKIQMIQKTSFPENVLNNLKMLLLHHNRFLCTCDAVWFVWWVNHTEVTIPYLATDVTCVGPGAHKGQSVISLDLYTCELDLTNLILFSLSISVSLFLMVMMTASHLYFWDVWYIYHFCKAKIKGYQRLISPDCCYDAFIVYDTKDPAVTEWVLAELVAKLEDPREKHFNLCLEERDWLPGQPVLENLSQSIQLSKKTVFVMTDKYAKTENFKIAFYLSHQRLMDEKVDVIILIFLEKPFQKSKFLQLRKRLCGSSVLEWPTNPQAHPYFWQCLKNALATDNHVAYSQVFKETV
Kind of assay: Human TLR7 Reporter Assay. In kind it is cell-based. The conditions noted are these: HEK-Blue hTLR7 cells, 16 hours, normalized to CL097 (6 μM) and DMSO. As for the experimental part: (§1) HEK-Blue™ hTLR7 cells (Invivogen, San Diego, Calif.) were maintained at 37° C./5% CO2/90% relative humidity in Dulbecco's Modified Eagle's Medium with 10% fetal bovine serum, 100 units/mL penicillin, 100 μg/mL streptomycin, 100 μg/mL normocin, 10 μg/mL blasticidin, and 100 μg/mL zeocin. HEK-Blue™ hTLR7 cells were maintained at 10-90% confluence and used before passage 20. For this assay, test compounds were dissolved in DMSO, and 10-point serial 3-fold dilution series in DMSO were prepared in Echo Qualified 384-well Polypropylene Microplates (Labcyte, San Jose, Calif.). Assay plates (384-well flat, clear bottom, black polystyrene TC-treated microtiter plates; Corning, Corning, N.Y.) were prepared by dispensing 150 nL of test compounds, high control (CL097; Invivogen, San Diego, Calif.), and low control (DMSO) by ECHO acoustic dispenser (Labcyte, San Jose Calif.) followed by addition of 5 μL of HEK-Blue™ Detection assay media (Invivogen, San Diego, Calif.). HEK-Blue™ hTLR7 cells in HEK-Blue™ Detection assay media (20,000 cells per well in 45 μL of media) were added to the assay plate and incubated for 16 hours at 37° C./5% CO2/90% relative humidity. For detection, assay plates were removed from the incubator, allowed to cool to ambient temperature, centrifuged at 200×g for 1 minutes, and read with an EnSpire Multimode Plate Reader (Perkin Elmer, Waltham, Mass.) for absorbance at 620 nm. Test compound effects were normalized to the window defined by the controls, CL097 (6 μM), and DMSO. Calculated % effects were fit using a 4-parameter algorithm, and EC50 was reported.

For another assay, the target named is T2, hTLR8 (Homo sapiens, UniProt Q9NR97).
T2 construct: host or cells: HEK-Blue hTLR8 cells (HEK293-derived, own knowledge)
T2 sequence (Q9NR97 27-1041): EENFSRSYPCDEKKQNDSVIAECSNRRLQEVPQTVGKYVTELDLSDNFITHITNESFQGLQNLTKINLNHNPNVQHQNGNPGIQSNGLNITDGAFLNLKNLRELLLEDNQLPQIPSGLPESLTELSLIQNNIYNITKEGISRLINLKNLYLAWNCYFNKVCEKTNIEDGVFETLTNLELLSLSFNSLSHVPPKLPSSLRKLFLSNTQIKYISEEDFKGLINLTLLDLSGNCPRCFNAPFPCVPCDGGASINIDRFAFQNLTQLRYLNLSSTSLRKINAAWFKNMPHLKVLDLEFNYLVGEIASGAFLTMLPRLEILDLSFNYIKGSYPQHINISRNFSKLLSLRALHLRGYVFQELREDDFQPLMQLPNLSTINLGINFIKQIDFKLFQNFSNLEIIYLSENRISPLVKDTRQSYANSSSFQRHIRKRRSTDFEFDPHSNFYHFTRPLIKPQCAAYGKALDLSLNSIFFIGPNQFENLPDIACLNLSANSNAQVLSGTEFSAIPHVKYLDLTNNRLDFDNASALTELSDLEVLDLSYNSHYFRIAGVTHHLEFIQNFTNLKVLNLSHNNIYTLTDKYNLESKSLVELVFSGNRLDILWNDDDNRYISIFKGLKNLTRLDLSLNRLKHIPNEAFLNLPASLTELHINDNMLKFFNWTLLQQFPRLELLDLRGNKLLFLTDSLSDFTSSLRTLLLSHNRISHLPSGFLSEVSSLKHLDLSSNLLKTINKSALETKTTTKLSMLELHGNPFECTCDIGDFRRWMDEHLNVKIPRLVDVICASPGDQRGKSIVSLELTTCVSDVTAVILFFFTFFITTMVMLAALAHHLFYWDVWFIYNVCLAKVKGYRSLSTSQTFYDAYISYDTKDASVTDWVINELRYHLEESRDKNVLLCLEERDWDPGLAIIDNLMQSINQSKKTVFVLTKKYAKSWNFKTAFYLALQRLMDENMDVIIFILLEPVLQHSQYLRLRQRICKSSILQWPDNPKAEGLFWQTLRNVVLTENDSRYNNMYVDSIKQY
As to the kind of experiment: Human TLR8 Reporter Assay. In kind it is cell-based. The conditions noted are these: HEK-Blue hTLR8 cells, 16 hours, normalized to tl8-506 (1 μM) and DMSO. Here is the method:
as §1, with “hTLR8” for “hTLR7”, “(tl8-506;” for “(CL097;”, “tl8-506 (1” for “CL097 (6”

pEC50: −log10 of the molar value.

By pEC50 is commonly meant the EC50 on a negative log10 scale, so that one unit is a factor of ten. A low value points to a large EC50. As to `CCCCNc1nc(N)nc2cn(Cc3c(OC)cc(CN4CCN(C(=O)C5CCC(CN6C(=O)CC(SC[C@H](N)C(=O)O)C6=O)CC5)CC4)cc3OC)nc12` (stereo partly shown) [Compound 89], the values for the pEC50 at hTLR7 and at hTLR8 were 5.58 and 4.61, respectively.

Take `CCCCNc1nc(N)nc2cn(Cc3c(OC)ccc(CN4CCN(C(=O)C5CCC(CN6C(=O)CC(SC[C@H](N)C(=O)O)C6=O)CC5)CC4)c3OC)nc12` (stereo partly shown) [Compound 90]: the negative logarithm of the EC50 (pEC50) at hTLR7 was 5.66; on hTLR8 it was 4.82.

As for `CCCC(C)Nc1nc(N)nc2cn(Cc3c(OC)cccc3OC)nc12` (stereo not shown) [Compound 91], the pEC50 at hTLR7 is 7.45; at hTLR8, 6.54.

Take `CCCCNc1nc(N)nc2cn(Cc3c(OC)cc(CNC(=O)C4CCC(CN5C(=O)CC(SC[C@H](N)C(=O)O)C5=O)CC4)cc3OC)nc12` (stereo partly shown) [Compound 92]: the negative logarithm of the EC50 (pEC50) on hTLR7 is 5.65; at hTLR8 it was 4.94.

With `CCCCNc1nc(N)nc2cn(Cc3ccncc3OC)nc12` [Compound 93], the negative-log EC50 (pEC50) on hTLR7 was 6.92; at hTLR8, 6.21.

In the case of `CCCCNc1nc(N)nc2cn(Cc3ncc(CN4CCNCC4)cc3OC)nc12` [Compound 94], the pEC50 at hTLR7 was 5.69; at hTLR8 it was 5.30.

As to `CCCCNc1nc(N)nc2cn(Cc3c(OC)ccc(CN4C(=O)C=CC4=O)c3OC)nc12` [Compound 95], the pEC50 at hTLR7 was 5.47; on hTLR8 it was 5.36.

For `CCCCNc1nc(N)nc2cn(Cc3c(OC)cc(CNC(=O)CCN4C(=O)C=CC4=O)cc3OC)nc12` [Compound 96], the pEC50 on hTLR7 is 5.71; at hTLR8 it was 5.11.

Consider `CCCCNc1nc(N)nc2cn(Cc3ccccn3)nc12` [Compound 97], for which the pEC50 was 6.58 at hTLR7 and 5.63 at hTLR8.

With `CCCCNc1nc(N)nc2cn(Cc3c(OC)cc(N4C(=O)C=CC4=O)cc3OC)nc12` [Compound 98], the pEC50 on hTLR7 was 6.38; at hTLR8, below 5.00.

Turning to `CCCCNc1nc(N)nc2cn(Cc3ncc(N4CCNCC4)cc3OC)nc12` [Compound 99], the pEC50 was 6.20 at hTLR7 and 5.86 on hTLR8.

With `CCCCNc1nc(N)nc2cn(Cc3cccnc3OC)nc12` [Compound 100], the pEC50 on hTLR7 is 7.13; on hTLR8, 6.30.

With `CCCCNc1nc(N)nc2cn(Cc3cnccc3OC)nc12` [Compound 101], the pEC50 was 6.82 on hTLR7 and 5.90 on hTLR8.

Take `CCCCNc1nc(N)nc2cn(C(C)c3ccccc3OC)nc12` (stereo not shown) [Compound 102]: the pEC50 on hTLR7 was 5.85; on hTLR8, below 5.00.

Regarding `CCCCNc1nc(N)nc2cn(Cc3c(OC)cc(CN4C(=O)C=CC4=O)cc3OC)nc12` [Compound 103], the negative-log EC50 (pEC50) on hTLR7 is 7.01; at hTLR8, 6.37.

`CCCCNc1nc(N)nc2cn(Cc3ccc(CN4C(=O)C=CC4=O)cc3OC)nc12` [Compound 104]: the pEC50 at hTLR7 was 6.53; at hTLR8, 5.69.

Take `CCCCNc1nc(N)nc2cn(Cc3ccc(CN4CCN(C(=O)CN5C(=O)C=CC5=O)CC4)cc3OC)nc12` [Compound 105]: the pEC50 at hTLR7 is 5.75; at hTLR8, 5.19.

For the compound `CCCCNc1nc(N)nc2cn(Cc3cncnc3OC)nc12` [Compound 106], the pEC50 on hTLR7 is 6.51; at hTLR8, 5.77.

With `CCC[C@H](CO)Nc1nc(N)nc2cn(Cc3c(OC)cccc3OC)nc12` [Compound 107], the values for the pEC50 on hTLR7 and on hTLR8 were 6.67 and 5.52, respectively.

`CCC[C@@H](CO)Nc1nc(N)nc2cn(Cc3c(OC)cccc3OC)nc12` [Compound 108]: the values for the pEC50 on hTLR7 and at hTLR8 were 7.53 and 6.94, respectively.

In the case of `CCCCNc1nc(N)nc2cn(Cc3c(OC)cc(CNC)cc3OC)nc12` [Compound 109], the pEC50 at hTLR7 is 7.04; at hTLR8, 7.00.

Take `CCCCNc1nc(N)nc2cn(Cc3ncc(CN4C(=O)C=CC4=O)cc3OC)nc12` [Compound 110]: the pEC50 was 6.26 on hTLR7 and 5.43 on hTLR8.

For the compound `CCCCNc1nc(N)nc2cn(Cc3nccnc3OC)nc12` [Compound 111], the figures for the negative logarithm of the EC50 (pEC50) on hTLR7 and at hTLR8 were 7.09 and 6.22, respectively.

As for `CCCCNc1nc(N)nc2cn(Cc3ccc(CN4CCNCC4)cc3)nc12` [Compound 112], the figures for the pEC50 at hTLR7 and on hTLR8 were 5.80 and 4.70, respectively.

`CCC[C@@H](C)Nc1nc(N)nc2cn(Cc3c(OC)cccc3OC)nc12` [Compound 113]: the negative logarithm of the EC50 (pEC50) on hTLR7 was 7.72; on hTLR8, 6.69.

In the case of `CCCCNc1nc(N)nc2cn(Cc3c(OC)cc(NCCN)cc3OC)nc12` [Compound 114], the pEC50 is 6.28 on hTLR7 and 5.35 on hTLR8.
